{"source": "patent US20040082635A1", "about": "“Fused cyclic compounds and medicinal use thereof” (priority 2001, published 2004)", "target": "T1, HCV polymerase (Hepatitis C virus genotype 1b, UniProt P26663)", "T1 construct": "a region encoding NS5B (591 amino acids; J Virol 1991 Mar, 65(3), 1105-13) was amplified by PCR; 6 His (N); made in house; host or cells: Escherichia coli", "T1 sequence (P26663 2420-3010)": "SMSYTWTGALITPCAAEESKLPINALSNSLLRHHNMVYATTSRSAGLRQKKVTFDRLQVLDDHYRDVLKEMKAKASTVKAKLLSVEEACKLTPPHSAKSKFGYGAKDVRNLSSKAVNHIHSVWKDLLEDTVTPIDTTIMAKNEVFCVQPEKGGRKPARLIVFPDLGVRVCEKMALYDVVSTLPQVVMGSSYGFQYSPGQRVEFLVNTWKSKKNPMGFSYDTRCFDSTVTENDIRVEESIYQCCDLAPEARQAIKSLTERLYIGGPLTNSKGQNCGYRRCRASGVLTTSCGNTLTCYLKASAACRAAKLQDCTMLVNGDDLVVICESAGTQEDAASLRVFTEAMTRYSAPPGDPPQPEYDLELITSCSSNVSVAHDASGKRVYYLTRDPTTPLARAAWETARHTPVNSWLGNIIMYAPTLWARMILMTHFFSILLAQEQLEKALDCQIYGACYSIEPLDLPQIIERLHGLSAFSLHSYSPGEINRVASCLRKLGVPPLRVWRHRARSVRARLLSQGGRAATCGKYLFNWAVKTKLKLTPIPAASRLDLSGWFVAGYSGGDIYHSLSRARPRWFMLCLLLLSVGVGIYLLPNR", "assay": "biochemical", "conditions": "read-out: HCV polymerase inhibitory activity IC50", "note": "Counter-ions that a name gives are not always drawn."}
{"molecule": "O=C(O)c1ccc2c(c1)nc(-c1ccc(OCc3cc(C(=O)NC4CCC4)ccc3-c3ccc(Cl)cc3)cc1F)n2C1CCCCC1", "note": "[Example 378, 2-{4-[2-(4-chlorophenyl)-5-(cyclobutylcarbamoyl)benzyloxy]-2-fluorophenyl}-1-cyclohexylbenzimidazole-5-carboxylic acid hydrochloride]", "values": [{"measurement": "IC50", "value": 18, "unit": "nM"}]}
{"molecule": "O=C(O)c1ccc2c(c1)nc(-c1ccc(Oc3cccc(OCC4CCNCC4)c3)cc1)n2C1CCCCC1", "note": "[Example 161, 1-cyclohexyl-2-{4-[3-(4-piperidylmethoxy)phenoxy]phenyl}-benzimidazole-5-carboxylic acid hydrochloride]", "values": [{"measurement": "IC50", "value": 62, "unit": "nM"}]}
{"molecule": "O=C(O)c1ccc2c(c1)nc(-c1ccc(OC(C(=O)O)(c3ccccc3)c3ccccc3)cc1)n2C1CCCCC1", "note": "[Example 181, 2-[4-(carboxydiphenylmethoxy)phenyl]-1-cyclohexylbenzimidazole-5-carboxylic acid]", "values": [{"measurement": "IC50", "value": 710, "unit": "nM"}]}
{"molecule": "O=C(O)c1ccc2c(c1)nc(-c1ccc(OCc3cc(NC4=NCCO4)ccc3-c3ccc(Cl)cc3)cc1F)n2C1CCCCC1", "note": "[Example 425, 2-{4-[2-(4-chlorophenyl)-5-(2-oxazolin-2-ylamino)benzyloxy]-2-fluorophenyl}-1-cyclohexylbenzimidazole-5-carboxylic acid dihydrochloride]", "values": [{"measurement": "IC50", "value": 26, "unit": "nM"}]}
{"molecule": "O=C(O)c1ccc2c(c1)nc(-c1ccc(OCc3cc(Cl)ccc3-c3ccccc3C(F)(F)F)cc1)n2C1CCCCC1", "note": "[Example 151, 2-{4-[3-chloro-6-(2-trifluoromethylphenyl)benzyloxy]phenyl}-1-cyclohexylbenzimidazole-5-carboxylic acid]", "values": [{"measurement": "IC50", "value": 200, "unit": "nM"}]}
{"molecule": "CN1CCN(C(=O)c2ccc(-c3ccc(Cl)cc3)c(COc3ccc(-c4nc5cc(C(=O)O)ccc5n4C4CCCCC4)cc3)c2)CC1", "note": "[Example 321, 2-{4-[2-(4-chlorophenyl)-5-(4-methylpiperazin-1-ylcarbonyl)benzyloxy]phenyl}-1-cyclohexylbenzimidazole-5-carboxylic acid dihydrochloride]", "values": [{"measurement": "IC50", "value": 15, "unit": "nM"}]}
{"molecule": "O=C(O)c1ccc2c(c1)nc(-c1ccc(OCc3cc(Cl)ccc3-c3ccc(F)cc3)cc1)n2C1CCCCC1", "note": "[Example 171, 2-{4-[3-chloro-6-(4-fluorophenyl)benzyloxy]phenyl}-1-cyclohexylbenzimidazole-5-carboxylic acid]", "values": [{"measurement": "IC50", "value": 50, "unit": "nM"}]}
{"molecule": "O=C(O)c1ccc2c(c1)nc(-c1ccc(Oc3cccc(OC4CCOCC4)c3)cc1)n2C1CCCCC1", "note": "[Example 209, 1-cyclohexyl-2-{4-[3-(4-tetrahydropyranyloxy)phenoxy]phenyl}-benzimidazole-5-carboxylic acid]", "values": [{"measurement": "IC50", "value": 120, "unit": "nM"}]}
{"molecule": "O=C(O)c1ccc2c(c1)nc(-c1ccc(OC(c3ccc(Cl)cc3)c3ccc(Cl)cc3)cc1)n2C1CCCCC1", "note": "[Example 118, 2-{4-[bis(4-chlorophenyl)methoxy]phenyl}-1-cyclohexylbenzimidazole-5-carboxylic acid]", "values": [{"measurement": "IC50", "value": 140, "unit": "nM"}]}
{"molecule": "O=C(O)c1ccc2c(c1)nc(-c1ccc(OCc3cc(N4CCCS4(=O)=O)c(F)cc3-c3ccc(Cl)cc3)cc1F)n2C1CCCCC1", "note": "[Example 449, 2-[4-{2-(4-chlorophenyl)-4-fluoro-5-(1,1-dioxoisothiazolidin-2-yl)benzyloxy}-2-fluorophenyl]-1-cyclohexylbenzimidazole-5-carboxylic acid hydrochloride]", "values": [{"measurement": "IC50", "value": 25, "unit": "nM"}]}
{"molecule": "CN(C)C(=O)Nc1ccc(-c2ccc(Cl)cc2)c(COc2ccc(-c3nc4cc(C(=O)O)ccc4n3C3CCCCC3)c(F)c2)c1", "note": "[Example 391, 2-{4-[2-(4-chlorophenyl)-5-{(dimethylcarbamoyl)amino}benzyloxy]-2-fluorophenyl}-1-cyclohexylbenzimidazole-5-carboxylic acid hydrochloride]", "values": [{"measurement": "IC50", "value": 17, "unit": "nM"}]}
{"molecule": "O=C(O)c1ccc2c(c1)nc(-c1ccc(OCc3cc(C(=O)N4CCCC4)ccc3-c3ccc(Cl)cc3)cc1F)n2C1CCCCC1", "note": "[Example 287, 2-{4-[2-(4-chlorophenyl)-5-(1-pyrrolidinyl)carbonylbenzyloxy]-2-fluorophenyl}-1-cyclohexylbenzimidazole-5-carboxylic acid]", "values": [{"measurement": "IC50", "value": 12, "unit": "nM"}]}
